According to US20260217767A1, “NOVEL A4B7 THIOETHER PEPTIDE DIMER ANTAGONISTS” (Protagonist Therapeutics, Inc., priority 2014, published 2026):
Where two headings read alike, the source gives them in different places. *1 amine or outer side, *2 acyl side, *3 side chain or, on linkers, in order; H or OH if unused. Where a SMILES comes first, the peptide text is derived from it. Bridges are numbered along the chain shown (N, C = ends). Roman numbers before positions name the chains, in order. [ ]: non-standard residue; d: D form. Phe(3-Me) = Cc1cccc(C[C@H](N)C(=O)O)c1; Phe(4-Me) = Cc1ccc(C[C@H](N)C(=O)O)cc1; Diglycolyl = O=C(COCC(=O)[*:2])[*:1]; Phe(2-Me) = Cc1ccccc1C[C@H](N)C(=O)O; NMeR = CN[C@@H](CCCNC(=N)N)C(=O)O; Tic = O=C(O)[C@@H]1Cc2ccccc2CN1; β3hE = N[C@@H](CCC(=O)O)CC(=O)O; X1 = O=C(c1ccccc1C[*:2])[*:1]; Pen = CC(C)(S)[C@H](N)C(=O)O

What was measured:
[1] = Simulated Intestinal Fluid (SIF) Stability Assay; format: in vitro ADME; settings: pig, 37° C.; for half-life: porcine pancreatin; for half-life at 22 μM: simulated intestinal fluid (SIF) with 1% porcine pancreatin, pH 6.5, porcine pancreatin
Experimental: Simulated Intestinal Fluid (SIF) Stability Assay
Studies were carried out in simulated intestinal fluid (SIF) to evaluate intestinal stability of the peptide molecules of the instant invention. To prepare the SIF reagent, blank FASSIF was prepared by dissolving 0.348 g NaOH, 3.954 g sodium phosphate monobasic monohydrate and 6.186 g NaCl in a final volume of 1 liter water (final pH=6.5). To this solution, 24 g porcine pancreatin (Sigma catalog P7545) was added and stirred for 30 minutes (final pancreatin concentration is 2.4%). The solution was filtered through a cheese cloth and a No. 1 Whatman filter, and 10 ml aliquots were stored at −70° C. To run the reaction, a 10 ml aliquot was thawed at 37° C., and 125 μl aliquots were removed and mixed with an equal volume of blank FASSIF. The peptide stock solution (10 mM in 100% DMSO) was diluted 75-fold in blank FASSIF. A 50 μl aliquot of the diluted peptide was combined with 125 μl pancreatin (2.4%) and 125 μl blank FASSIF to yield final concentrations of 1% pancreatin and 22 μM peptide. The reactions were incubated at 37° C., and at various time points 50 μl aliquots were removed and added to 200 μl of quench solution containing 50% acetonitrile, 50% methanol, 5% formic acid, and 1 μg/ml internal standard. The quenched samples were centrifuged at 10,000 rpm for 10 minutes, and the supernatants were analyzed by LCMS/MS. The percent remaining at each time point was calculated based on the peak area response ratio of test to compound to internal standard. Half-lives were calculated by fitting to a first-order exponential decay equation using GraphPad. A small sampling of the results of these studies is provided and discussed herein and in the accompanying figures.

RPMI 8866 cells = biological target: T1, RPMI 8866 cells (Homo sapiens, UniProt P13612+P26010); experiment: α4β7-MAdCAM Cell Adhesion Assay; format: cell-based; settings: read-out: Cell-Adhesion A4B7
T1 sequence (P13612 34-1032): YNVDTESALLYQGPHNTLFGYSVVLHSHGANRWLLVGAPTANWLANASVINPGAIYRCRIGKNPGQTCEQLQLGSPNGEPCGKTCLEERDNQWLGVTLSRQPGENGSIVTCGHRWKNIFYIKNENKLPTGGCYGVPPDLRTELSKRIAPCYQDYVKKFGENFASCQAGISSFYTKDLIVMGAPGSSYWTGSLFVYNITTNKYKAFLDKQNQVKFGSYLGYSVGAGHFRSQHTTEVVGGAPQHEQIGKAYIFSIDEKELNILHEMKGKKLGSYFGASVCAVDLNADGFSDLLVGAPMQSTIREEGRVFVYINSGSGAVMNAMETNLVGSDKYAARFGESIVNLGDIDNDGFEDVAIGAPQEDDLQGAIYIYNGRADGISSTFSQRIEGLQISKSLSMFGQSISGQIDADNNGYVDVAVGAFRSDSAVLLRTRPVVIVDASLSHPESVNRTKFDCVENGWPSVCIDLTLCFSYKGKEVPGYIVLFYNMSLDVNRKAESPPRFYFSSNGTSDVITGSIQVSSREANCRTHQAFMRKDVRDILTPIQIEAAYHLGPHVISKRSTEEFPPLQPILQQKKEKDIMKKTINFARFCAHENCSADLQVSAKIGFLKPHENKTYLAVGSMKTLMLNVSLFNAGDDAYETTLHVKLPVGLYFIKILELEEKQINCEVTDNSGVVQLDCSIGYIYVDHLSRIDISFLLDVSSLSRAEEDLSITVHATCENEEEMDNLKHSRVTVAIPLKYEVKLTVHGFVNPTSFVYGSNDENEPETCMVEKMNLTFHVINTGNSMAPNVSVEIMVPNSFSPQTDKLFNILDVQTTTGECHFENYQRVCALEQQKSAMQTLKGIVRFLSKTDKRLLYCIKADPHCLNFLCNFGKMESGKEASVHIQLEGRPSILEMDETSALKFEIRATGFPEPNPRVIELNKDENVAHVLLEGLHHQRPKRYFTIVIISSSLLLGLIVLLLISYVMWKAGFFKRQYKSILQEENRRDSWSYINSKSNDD
T1 sequence (P26010 20-798): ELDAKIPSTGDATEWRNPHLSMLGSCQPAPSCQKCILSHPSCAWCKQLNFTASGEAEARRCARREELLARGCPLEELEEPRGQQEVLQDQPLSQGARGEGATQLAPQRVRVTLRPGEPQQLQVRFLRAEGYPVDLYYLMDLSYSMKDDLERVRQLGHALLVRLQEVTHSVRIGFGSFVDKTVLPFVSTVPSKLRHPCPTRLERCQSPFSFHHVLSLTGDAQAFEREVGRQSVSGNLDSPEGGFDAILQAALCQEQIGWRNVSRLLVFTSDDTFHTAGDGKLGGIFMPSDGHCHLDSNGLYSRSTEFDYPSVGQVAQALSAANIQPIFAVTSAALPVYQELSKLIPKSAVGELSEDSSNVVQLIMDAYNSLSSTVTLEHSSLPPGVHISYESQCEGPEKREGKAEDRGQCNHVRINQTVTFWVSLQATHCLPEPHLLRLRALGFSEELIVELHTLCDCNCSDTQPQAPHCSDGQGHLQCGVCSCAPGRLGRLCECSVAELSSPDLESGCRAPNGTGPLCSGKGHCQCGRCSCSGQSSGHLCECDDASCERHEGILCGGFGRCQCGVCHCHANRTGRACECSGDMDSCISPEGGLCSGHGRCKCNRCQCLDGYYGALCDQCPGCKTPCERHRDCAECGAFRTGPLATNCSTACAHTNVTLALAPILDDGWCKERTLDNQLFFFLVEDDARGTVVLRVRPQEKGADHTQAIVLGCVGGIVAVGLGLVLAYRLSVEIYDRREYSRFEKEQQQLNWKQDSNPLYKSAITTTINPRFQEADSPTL
How it was run: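 Peptide inhibition of adhesion measured with MAdCAM-1/Fc chimera immobilised at 200 ng/well and MnCl2-activated (1 mM) RPMI 8866 cells, 30-45 min at 37° C. Adherent cells remaining after three washes detected by MTT reduction at 570 nm, corrected for no-cell wells, giving dose response.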

[2] = thioether peptide dimers, Table 7
[3] = thioether monomer peptides, Table 6

SMILES	half-life ([1]; dimers, Table 7) [h]	IC50 (RPMI 8866 cells; [2]) [nM]	half-life at 22 μM ([1]; dimers, Table 7) [h]	half-life ([1]; monomers, Table 6) [h]	IC50 (RPMI 8866 cells; [3]) [nM]
CC(C)C[C@@H]1NC(=O)[C@H]([C@@H](C)O)NC(=O)[C@H](CC(=O)O)NC(=O)[C@H](CO)NC(=O)[C@H](CCCNC(=N)N)N(C)C(=O)CCSCC[C@@H](C(=O)N[C@@H](Cc2c[nH]c3ccccc23)C(=O)N[C@H](CCCCNC(=O)COCC(=O)NCCCC[C@@H](NC(=O)[C@H](Cc2c[nH]c3ccccc23)NC(=O)[C@@H]2CCSCCC(=O)N(C)[C@@H](CCCNC(=N)N)C(=O)N[C@@H](CO)C(=O)N[C@@H](CC(=O)O)C(=O)N[C@@H]([C@@H](C)O)C(=O)N[C@@H](CC(C)C)C(=O)N2)C(N)=O)C(N)=O)NC1=O [compound 149]	< 0.333	> 1000			
COC(=O)CC[C@H](NC(=O)[C@@H]1Cc2ccccc2CN1C(=O)[C@@H]1CSCc2ccccc2C(=O)N(C)[C@@H](CCCNC(=N)N)C(=O)N[C@@H](CO)C(=O)N[C@@H](CC(=O)O)C(=O)N[C@@H]([C@@H](C)O)C(=O)N[C@@H](CC(C)C)C(=O)N1)C(=O)N[C@H](CCCCN)C(N)=O [compound 211] (HELM PEPTIDE1{[meR].S.D.T.L.C.[Tic].E.[dK].[am]}|CHEM1{[CO[*:1]]}|CHEM2{[O=C(c1ccccc1C[*:2])[*:1]]}$PEPTIDE1,CHEM1,8:R3-1:R1|PEPTIDE1,CHEM2,1:R1-1:R1|PEPTIDE1,CHEM2,6:R3-1:R2$$$V2.0)		< 25	0.117		
CC(C)C[C@@H]1NC(=O)[C@H]([C@@H](C)O)NC(=O)[C@H](CC(=O)O)NC(=O)[C@H](CO)NC(=O)[C@H](CCCNC(=N)N)N(C)C(=O)c2ccccc2CSC[C@@H](C(=O)N2Cc3ccccc3C[C@H]2C(=O)N[C@H](CCCCN)C(N)=O)NC1=O [compound 216] (HELM PEPTIDE1{[meR].S.D.T.L.C.[Tic].[dK].[am]}|CHEM1{[O=C(c1ccccc1C[*:2])[*:1]]}$PEPTIDE1,CHEM1,1:R1-1:R1|PEPTIDE1,CHEM1,6:R3-1:R2$$$V2.0)		< 25	> 3		
COC(=O)CC[C@H](NC(=O)[C@@H]1Cc2ccccc2CN1C(=O)[C@@H]1CSCc2ccccc2C(=O)N(C)[C@@H](CCCNC(=N)N)C(=O)N[C@@H](CO)C(=O)N[C@@H](CC(=O)O)C(=O)N[C@@H]([C@@H](C)O)C(=O)N[C@@H](CC(C)C)C(=O)N1)C(=O)N[C@H](CCCCNC(=O)COCC(=O)NCCCC[C@@H](NC(=O)[C@H](CCC(=O)OC)NC(=O)[C@@H]1Cc2ccccc2CN1C(=O)[C@@H]1CSCc2ccccc2C(=O)N(C)[C@@H](CCCNC(=N)N)C(=O)N[C@@H](CO)C(=O)N[C@@H](CC(=O)O)C(=O)N[C@@H]([C@@H](C)O)C(=O)N[C@@H](CC(C)C)C(=O)N1)C(=O)O)C(=O)O [compound 220] (I: [NMeR]SDTLC[Tic]E(OMe)[dK]-OH / II: [NMeR]SDTLC[Tic]E(OMe)[dK]-OH; linker I:9-II:9 via Diglycolyl; linker I:N-I:6, II:N-II:6 via X1)	> 3	< 25			
Cc1ccc(C[C@H](NC(=O)[C@H]2NC(=O)[C@H](CC(C)C)NC(=O)[C@H]([C@@H](C)O)NC(=O)[C@H](CC(=O)O)NC(=O)[C@H](CO)NC(=O)[C@H](CCCNC(=N)N)N(C)C(=O)c3ccccc3CSC2(C)C)C(=O)N[C@@H](CCC(=O)O)CC(N)=O)cc1 [compound 132] ([NMeR]SDTL[Pen][Phe(4-Me)][β3hE]-NH2; linker N-6 via X1)				> 3	< 25
Cc1ccccc1C[C@H](NC(=O)[C@H]1NC(=O)[C@H](CC(C)C)NC(=O)[C@H]([C@@H](C)O)NC(=O)[C@H](CC(=O)O)NC(=O)[C@H](CO)NC(=O)[C@H](CCCNC(=N)N)N(C)C(=O)c2ccccc2CSC1(C)C)C(=O)N[C@@H](CCC(=O)O)CC(N)=O [compound 126] ([NMeR]SDTL[Pen][Phe(2-Me)][β3hE]-NH2; linker N-6 via X1)				> 3	25 to 100
Cc1cccc(C[C@H](NC(=O)[C@H]2NC(=O)[C@H](CC(C)C)NC(=O)[C@H]([C@@H](C)O)NC(=O)[C@H](CC(=O)O)NC(=O)[C@H](CO)NC(=O)[C@H](CCCNC(=N)N)N(C)C(=O)c3ccccc3CSC2(C)C)C(=O)N[C@@H](CCC(=O)O)CC(N)=O)c1 [compound 125] ([NMeR]SDTL[Pen][Phe(3-Me)][β3hE]-NH2; linker N-6 via X1)				> 3	< 25
